Data from patent US11453671B2, “Pyrazolopyrimidine inhibitors of JAK kinases and uses thereof” (Genentech, Inc., priority 2020, dated 2022).
Where two headings read alike, the source gives them in different places.

Columns and labels:
[1] = target: T1, recombinant human JAK1 kinase domain protein (Residues 854-1154) (Homo sapiens, UniProt P23458); assay: JAK1 biochemical assay (microfluidic mobility shift, peptide phosphorylation); conditions: 25 μM ATP, 1 nM total JAK1; read-out: Enzyme JAK1 Ki
T1 construct: human JAK1 kinase domain protein (Residues 854-1154); purchased Proteros Biostructures GmbH (Martinsried, Germany); host or cells: insect cells
T1 sequence (P23458 854-1154): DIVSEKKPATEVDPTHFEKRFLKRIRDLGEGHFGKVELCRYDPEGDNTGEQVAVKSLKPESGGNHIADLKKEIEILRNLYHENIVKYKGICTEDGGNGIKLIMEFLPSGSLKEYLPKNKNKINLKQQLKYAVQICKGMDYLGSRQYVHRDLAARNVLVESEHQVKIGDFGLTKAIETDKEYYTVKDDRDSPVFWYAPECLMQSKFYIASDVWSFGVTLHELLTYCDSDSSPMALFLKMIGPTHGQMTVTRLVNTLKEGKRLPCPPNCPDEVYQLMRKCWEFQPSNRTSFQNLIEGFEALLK
Excerpt: JAK1 and JAK2 Biochemical Assays

[2] = test system: JAK1: IL-13-stimulated STAT6 phosphorylation in BEAS-2B cells; assay: P-STAT6 BEAS-2B+IL-13 Cell Assay; type: cell-based, human; conditions: IL-13 stimulation, read-out: Cellular JAK1 PSTAT6 BEAS2B + IL13 IC50
How it was run: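 BEAS-2B cells in BEGM preincubated 1 h at 37 °C with 10-point, 1:2 compound dilutions, then stimulated 15 min with IL-13 (250 ng/mL stock). Lysate pSTAT6 (Tyr641) captured on total-STAT6 antibody and read by MSD electrochemiluminescence; IC50 from four-parameter logistic fit.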

[3] = Mouse lung tissue binding (equilibrium dialysis, RED); type: in vitro ADME; conditions: for Mouse LTB %: mouse lung tissue binding, % bound (Table 3)
Description: Mouse lung tissue binding. A high bound fraction or percentage of JAK1/JAK2 inhibitors to lung tissue may be undesirable since it can reduce the amount of free drug available to inhibit JAK1 or JAK2.
(a) Tissue binding experiments were performed in triplicate (n=3) using a Single-Use RED Plate by following the standard protocol. Initially, individual drugs were spiked to tissue homogenates (pH 7.4) to achieve a final concentration of 1 μM, and then 300 μL of drug-tissue homogenate mixtures were transferred to the donor wells of the RED plate which was pre-loaded with 500 μL phosphate buffer saline (133 mM) on the receiver wells. The RED plate was sealed with a gas permeable membrane and placed in a shaking incubator (450 rpm, VWR Symphony™) for 6 hr at 37° C. with 5% CO2. At the end of incubation, aliquots of 30 μL samples were taken out of the RED device and matrix equalized with an equal volume of tissue homogenates or buffer, and resulting samples were then immediately quenched with ice cold acetonitrile (sample:acetonitrile 1:4) containing either propranolol or labetalol as an internal standard. After shaking for 15 min at 500 rpm on a Thermo Scientific Compact Digital MicroPlate Shaker, all samples were then subjected to centrifugation at 3700 rpm for 15 min (Beckman Coulter Allegra X 12R) to remove plasma protein. Subsequently, supernatants were collected and then diluted with an equal volume of water prior to LC-MS/MS analysis.
(b) In an alternate procedure, the extent of lung tissue binding of test compound to mouse lung homogenate may also be determined by equilibrium dialysis using Pierce RED (rapid equilibrium dialysis) devices (Fisher Scientific 89811 & 89809). A 10 mM solution of compound in DMSO was prepared and diluted to 1 mM with DMSO. An aliquot of this 1 mM (4 μL) was added into lung homogenate (dilution factor of 1:9, lung tissue:potassium phosphate buffer (0.05 M, pH 7.4)) to give a final compound incubation concentration of 5 μM with solvent accounting for 0.5% (v/v) of the final incubation volume.
For each assay, the percentage lung tissue bound was determined in triplicate. Lung homogenate (200 μL) was loaded into one side of a RED device insert, in triplicate, and 350 μL of potassium phosphate buffer was loaded into the other side. The RED devices were sealed and incubated for 4 hours at ca. 37° C. on an orbital shaker (˜150 rpm).
Following incubation, an aliquot of lung homogenate (8 μL) and an aliquot of dialysate (72 μL) were matrix matched (lung homogenate with 72 μL phosphate buffer, dialysate with 8 μL lung homogenate) ahead of analysis. Protein was precipitated from the samples with the addition of 160 μL of acetonitrile containing internal standard. The same matrix matching and protein precipitation procedure was performed on lung homogenate aliquots sampled at the start of the experiment (t=0 min samples), for the assessment of the mass balance. The quenched samples were centrifuged (4000 rpm, 30 min, 4° C.) and the resultant supernatant diluted with water (3:1 (v/v), supernatant: water) and the samples analysed for parent compound by liquid chromatography mass spectrometry assay.
The unbound fraction (fu) in lung homogenate was determined from the ratio of the dialysate to homogenate peak area, corrected to take into account the lung homogenate dilution (D) to enable an estimate of whole lung tissue binding using the following equations: Undiluted fu=(1/D)/[((1/Apparent fu)−1)+(1/D)] Corrected fraction bound (%)=(1-undiluted fu)*100

| Compound | Ki [1] | Mouse LTB % [3] | Lung tissue binding, % ([3]; Table 5, sulfone-sulfide analog pairs) | IC50 ([2]; Homo sapiens, BEAS-2B) | IC50 [2] |
| --- | --- | --- | --- | --- | --- |
| C[C@H](O)CS(=O)(=O)c1ccc(OC(F)F)c(-c2nn(C)cc2NC(=O)c2cnn3cccnc23)c1 (stereo in doubt) [Example 15, N-[3-[2-(difluoromethoxy)-5-[rac-(2S)-2-hydroxypropyl]sulfonyl-phenyl]-1-methyl-pyrazol-4-yl]pyrazolo[1,5-a]pyrimidine-3-carboxamide] | 0.43 nM | 85.7% | – | 20 nM | – |
| Cn1cc(NC(=O)c2cnn3cccnc23)c(-c2cc(S(=O)(=O)CCCO)ccc2OC(F)F)n1 [Example 63, N-[3-[2-(difluoromethoxy)-5-(3-hydroxypropylsulfonyl)phenyl]-1-methyl-pyrazol-4-yl]pyrazolo[1,5-a]pyrimidine-3-carboxamide] | 0.58 nM | 80.5% | – | 71 nM | – |
| Cn1cc(NC(=O)c2cnn3cccnc23)c(-c2cc(S(=O)(=O)c3cn[nH]c3)ccc2OC(F)F)n1 [Example 41, N-[3-[2-(difluoromethoxy)-5-(1H-pyrazol-4-ylsulfonyl)phenyl]-1-methyl-pyrazol-4-yl]pyrazolo[1,5-a]pyrimidine-3-carboxamide] | 0.18 nM | 91.2% | – | 37 nM | – |
| Cn1cc(NC(=O)c2cnn3cccnc23)c(-c2cc3c(cc2OC(F)F)NCCS3(=O)=O)n1 [Example 46, N-[3-[6-(difluoromethoxy)-1,1-dioxo-3,4-dihydro-2H-1lambda6,4-benzothiazin-7-yl]-1-methyl-pyrazol-4-yl]pyrazolo[1,5-a]pyrimidine-3-carboxamide] | 0.26 nM | 89.9% | – | 49 nM | – |
| CN1CCCC1CCn1cc(S(=O)(=O)c2ccc(OC(F)F)c(-c3nn(C)cc3NC(=O)c3cnn4cccnc34)c2)cn1 (stereo in doubt) [Example 56, N-[3-[2-(difluoromethoxy)-5-[1-[2-[(2R)-1-methylpyrrolidin-2-yl]ethyl]pyrazol-4-yl]sulfonyl-phenyl]-1-methyl-pyrazol-4-yl]pyrazolo[1,5-a]pyrimidine-3-carboxamide] | 0.71 nM | 91.4% | – | 56 nM | – |
| CN(C)CCn1cc(S(=O)(=O)c2ccc(OC(F)F)c(-c3nn(C)cc3NC(=O)c3cnn4cccnc34)c2)cn1 [Example 49, N-[3-[2-(difluoromethoxy)-5-[1-[2-(dimethylamino)ethyl]pyrazol-4-yl]sulfonyl-phenyl]-1-methyl-pyrazol-4-yl]pyrazolo[1,5-a]pyrimidine-3-carboxamide] | 0.5 nM | 84.4% | – | 28 nM | – |
| N#CCn1cc(NC(=O)c2cnn3cccnc23)c(-c2cc(S(=O)(=O)C3CC3)ccc2OC(F)F)n1 [Example 45, N-[1-(cyanomethyl)-3-[5-cyclopropylsulfonyl-2-(difluoromethoxy)phenyl]pyrazol-4-yl]pyrazolo[1,5-a]pyrimidine-3-carboxamide] | 0.71 nM | 87.9% | – | 35 nM | – |

Second part, led by results:

| Ki [1] | Mouse LTB % [3] | Lung tissue binding, % ([3]; Table 5, sulfone-sulfide analog pairs) | Compound | IC50 ([2]; Homo sapiens, BEAS-2B) | IC50 [2] |
| --- | --- | --- | --- | --- | --- |
| 0.26 nM | 82.1% | – | CC(CO)S(=O)(=O)c1ccc(OC(F)F)c(-c2nn(C)cc2NC(=O)c2cnn3cccnc23)c1 (single isomer, unassigned) [Example 23, N-[3-[2-(difluoromethoxy)-5-(2-hydroxy-1-methyl-ethyl)sulfonyl-phenyl]-1-methyl-pyrazol-4-yl]pyrazolo[1,5-a]pyrimidine-3-carboxamide] | – | 14 nM |
| 0.46 nM | 88.7% | – | Cn1cc(NC(=O)c2cnn3cccnc23)c(-c2cc(S(=O)(=O)C3CC3)ccc2OC(F)F)n1 [Example 22, N-[3-[5-cyclopropylsulfonyl-2-(difluoromethoxy)phenyl]-1-methyl-pyrazol-4-yl]pyrazolo[1,5-a]pyrimidine-3-carboxamide] | 23 nM | – |
| 0.4 nM | 85% | 85.8% | Cn1cc(NC(=O)c2cnn3cccnc23)c(-c2cc(S(=O)(=O)C3COC3)ccc2OC(F)F)n1 [Example 13, N-[3-[2-(difluoromethoxy)-5-(oxetan-3-ylsulfonyl)phenyl]-1-methyl-pyrazol-4-yl]pyrazolo[1,5-a]pyrimidine-3-carboxamide] | 33 nM | – |
| 0.22 nM | 83% | – | Cn1cc(NC(=O)c2cnn3cccnc23)c(-c2cc(S(=O)(=O)N3CCC3)ccc2OC(F)F)n1 [Example 21, N-[3-[5-(azetidin-1-ylsulfonyl)-2-(difluoromethoxy)phenyl]-1-methyl-pyrazol-4-yl]pyrazolo[1,5-a]pyrimidine-3-carboxamide] | 14 nM | – |
